For 18 molecules, IC50 results are on record in patent US9340521B2, “Method for dual inhibition of SGLT1 and SGLT2 using diphenylmethane derivatives” (GREEN CROSS CORPORATION, priority 2013, dated 2016).

Test [1] concerns the target Human SGLT2 (hSGLT2) (Homo sapiens (Human), UniProt P31639). Put plainly: Inhibitory effects on human SGLT2 activities (14C-AMG uptake, sodium-dependent glucose transport assay). It counts as cell-based. The following applies: hSGLT2-expressing CHO cells, 37° C. for 2 h, single determinations. An excerpt:
Test 1: Cloning and Cell Line Construction for Human SGLT2
Human SGLT2 (hSGLT2) gene was amplified by PCR from cDNA-Human Adult Normal Tissue Kidney (Invitrogen). The hSGLT2 sequence was cloned into pcDNA3.1(+) for mammalian expression and stably transfected into chinese hamster ovary (CHO) cells. SGLT2-expressing clones were selected based on resistance to G418 antibiotic (Geneticin) and activity in the ^14C-α-methyl-D-glucopyranoside (^14C-AMG) uptake assay.
Test 2: Inhibitory Effects on Human SGLT2 Activities
(§1) For sodium-dependent glucose transport assay, cells expressing hSGLT2 were seeded into a 96-well culture plate at a density of 5×10^4 cells/well in RPMI medium 1640 containing 10% fetal bovine serum. The cells were used 1 day after plating. They were incubated in pretreatment buffer (10 mM HEPES, 5 mM Tris, 140 mM choline chloride, 2 mM KCl, 1 mM CaCl2, and 1 mM MgCl2, pH 7.4) at 37° C. for 10 min. They were then incubated in uptake buffer (10 mM HEPES, 5 mM Tris, 140 mM NaCl, 2 mM KCl, 1 mM CaCl2, 1 mM MgCl2, and 1 mM ^14C-nonlabeled AMG pH 7.4) containing ^14C-labeled AMG (8 μM) and the inventive compound or dimethyl sulfoxide (DMSO) vehicle at 37° C. for 2 h. Cells were washed twice with washing buffer (pretreatment buffer containing 10 mM AMG at room temperature) and then the radioactivity was measured using a liquid scintillation counter. IC50 was determined by nonlinear regression analysis using GraphPad PRISM [Katsuno, K. et al. J. Pharmacol. Exp. Ther. 2007, 320, 323-330; Han, S. et al. Diabetes, 2008, 57, 1723-1729].

For test [2], the target named is Human SGLT1 (hSGLT1) (Homo sapiens (Human), UniProt P13866). Put plainly: Inhibitory effects on human SGLT1 activities (14C-AMG uptake, sodium-dependent glucose transport assay). It is filed as cell-based. The conditions noted are these: 37° C. for 2 h, single determinations. The procedure: Test 3: Inhibitory Effects on Human SGLT1 Activities
Sequence of Human SGLT1 (hSGLT1) (P13866 whole entry): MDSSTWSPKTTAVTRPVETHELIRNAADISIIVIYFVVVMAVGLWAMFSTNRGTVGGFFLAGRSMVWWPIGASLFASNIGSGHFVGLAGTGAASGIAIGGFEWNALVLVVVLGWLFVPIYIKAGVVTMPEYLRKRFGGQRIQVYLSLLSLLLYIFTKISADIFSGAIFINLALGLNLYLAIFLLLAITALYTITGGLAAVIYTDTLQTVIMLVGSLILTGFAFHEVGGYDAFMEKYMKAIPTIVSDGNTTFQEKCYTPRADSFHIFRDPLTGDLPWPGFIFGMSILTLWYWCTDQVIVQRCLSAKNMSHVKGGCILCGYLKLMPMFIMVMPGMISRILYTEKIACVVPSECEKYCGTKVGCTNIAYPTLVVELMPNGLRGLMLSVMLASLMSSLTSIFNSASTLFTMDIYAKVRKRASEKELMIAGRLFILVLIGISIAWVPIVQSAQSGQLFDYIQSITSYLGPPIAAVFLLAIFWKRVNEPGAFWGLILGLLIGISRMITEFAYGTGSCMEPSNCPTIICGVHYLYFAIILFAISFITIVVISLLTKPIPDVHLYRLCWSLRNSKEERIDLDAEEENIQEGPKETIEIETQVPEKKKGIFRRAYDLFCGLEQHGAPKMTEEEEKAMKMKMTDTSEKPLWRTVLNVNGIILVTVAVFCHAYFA
as §1, with “^14C-labeled” for “^14C-labeled AMG”, “inhibitor” for “the inventive compound”, “PRISM.” for “PRISM [Katsuno, K. et al. J. Pharmacol. Exp. Ther. 2007, 320, 323-330; Han, S. et al. Diabetes, 2008, 57, 1723-1729].”

Sequence of Human SGLT2 (hSGLT2) (P31639 whole entry): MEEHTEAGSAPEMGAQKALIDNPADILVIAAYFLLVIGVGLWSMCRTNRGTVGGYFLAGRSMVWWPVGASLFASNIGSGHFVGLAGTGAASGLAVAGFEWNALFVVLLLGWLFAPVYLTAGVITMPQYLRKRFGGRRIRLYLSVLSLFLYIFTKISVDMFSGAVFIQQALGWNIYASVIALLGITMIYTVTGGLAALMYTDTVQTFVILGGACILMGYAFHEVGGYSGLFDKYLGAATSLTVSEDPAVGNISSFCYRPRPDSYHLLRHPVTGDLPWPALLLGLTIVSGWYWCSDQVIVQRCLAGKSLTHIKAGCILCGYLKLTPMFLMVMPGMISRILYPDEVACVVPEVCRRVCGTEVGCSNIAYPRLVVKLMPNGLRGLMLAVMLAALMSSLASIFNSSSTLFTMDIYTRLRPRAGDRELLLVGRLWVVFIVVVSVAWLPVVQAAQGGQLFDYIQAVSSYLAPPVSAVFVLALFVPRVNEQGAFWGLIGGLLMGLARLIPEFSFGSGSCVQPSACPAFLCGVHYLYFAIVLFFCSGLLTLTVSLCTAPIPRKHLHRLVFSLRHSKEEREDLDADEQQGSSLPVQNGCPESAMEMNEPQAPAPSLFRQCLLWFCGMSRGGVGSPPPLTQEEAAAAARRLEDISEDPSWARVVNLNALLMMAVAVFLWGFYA

By IC50 is commonly meant the concentration at which inhibition is half-maximal. A higher IC50 goes with weaker potency. For the molecule `CCc1ccc(Cc2cc([C@@H]3O[C@H](CO)[C@@H](O)[C@H](O)[C@H]3O)c3c(c2Cl)CC(C)S3)cc1` (stereo partly drawn) [Compound E019, (2S,3R,4R,5S,6R)-2-(4-Chloro-5-(4-ethylbenzyl)-2-methyl-2,3-dihydrobenzo[b]thiophen-7-yl)-6-(hydroxymethyl)tetrahydro-2H-pyran-3,4,5-triol], the 50% inhibitory concentration (IC50) in test [1] came out at 0.98 nM; in test [2], 111 nM.

With `OC[C@H]1O[C@@H](c2cc(Cc3ccc(C4CC4)cc3)c(Cl)c3c2CCCO3)[C@H](O)[C@@H](O)[C@@H]1O` [Compound E022, (2S,3R,4R,5S,6R)-2-(8-Chloro-7-(4-cyclopropylbenzyl)chroman-5-yl)-6-(hydroxymethyl)tetrahydro-2H-pyran-3,4,5-triol], the IC50 came out at 0.88 nM in test [1] and 50 nM in test [2].

As to `Cc1ccc(Cc2cc([C@@H]3O[C@H](CO)[C@@H](O)[C@H](O)[C@H]3O)c3c(c2C)OCO3)cc1` [Compound E061, (2R,3S,4R,5R,6S)-2-(Hydroxymethyl)-6-(7-methyl-6-(4-methylbenzyl)benzo[d][1,3]dioxol-4-yl)tetrahydro-2H-pyran-3,4,5-triol], the IC50 is 1.7 nM in test [1] and 27 nM in test [2].

As for `CCc1ccc(Cc2cc([C@@H]3O[C@H](CO)[C@@H](O)[C@H](O)[C@H]3O)c3c(c2Br)CCC3)cc1` [Compound E003, (2S,3R,4R,5S,6R)-2-(7-Bromo-6-(4-ethylbenzyl)-2,3-dihydro-1H-inden-4-yl)-6-(hydroxymethyl)tetrahydro-2H-pyran-3,4,5-triol], the IC50 is 0.61 nM in test [1] and 45.4 nM in test [2].

Turning to `Cc1ccc(Cc2cc([C@@H]3O[C@H](CO)[C@@H](O)[C@H](O)[C@H]3O)c3c(c2Cl)OCCO3)cc1` [Compound E042, (2S,3R,4R,5S,6R)-2-(8-chloro-7-(4-methylbenzyl)-2,3-dihydrobenzo[b][1,4]dioxin-5-yl)-6-(hydroxymethyl)tetrahydro-2H-pyran-3,4,5-triol], the values for the 50% inhibitory concentration (IC50) in test [1] and in test [2] were 1 nM and 9.2 nM, respectively.

Take `COc1ccc(Cc2cc([C@@H]3O[C@H](CO)[C@@H](O)[C@H](O)[C@H]3O)c3c(c2Cl)CCCO3)cc1` [Compound E010, (2S,3R,4R,5S,6R)-2-(5-Chloro-6-(4-methoxybenzyl)chroman-8-yl)-6-(hydroxymethyl)tetrahydro-2H-pyran-3,4,5-triol]: the IC50 in test [1] worked out at 1.6 nM; in test [2] it was 16.9 nM.

On to `CCc1ccc(Cc2cc([C@@H]3O[C@H](CO)[C@@H](O)[C@H](O)[C@H]3O)c3c(c2Cl)CCCC3)cc1` [Compound E043, (2S,3R,4R,5S,6R)-2-(4-Chloro-3-(4-ethylbenzyl)-5,6,7,8-tetrahydronaphthalen-1-yl)-6-(hydroxymethyl)tetrahydro-2H-pyran-3,4,5-triol], for which the results for the IC50 in test [1] and in test [2] were 0.49 nM and 32.6 nM, respectively.

Take `Cc1ccc(Cc2cc([C@@H]3O[C@H](CO)[C@@H](O)[C@H](O)[C@H]3O)c3c(c2Cl)CCCO3)cc1` [Compound E052, (2S,3R,4R,5S,6R)-2-(5-Chloro-6-(4-methylbenzyl)chroman-8-yl)-6-(hydroxymethyl)tetrahydro-2H-pyran-3,4,5-triol]: the IC50 in test [1] is 1.1 nM; in test [2], 9.2 nM.

For `CSc1ccc(Cc2cc([C@@H]3O[C@H](CO)[C@@H](O)[C@H](O)[C@H]3O)c3c(c2Cl)OCCO3)cc1` [Compound E050, (2S,3R,4R,5S,6R)-2-(8-Chloro-7-(4-(methylthio)benzyl)-2,3-dihydrobenzo[b][1,4]dioxin-5-yl)-6-(hydroxymethyl)tetrahydro-2H-pyran-3,4,5-triol], the half-maximal inhibitory concentration (IC50) in test [1] turned out to be 0.85 nM; in test [2], 23.2 nM.

For the molecule `CCOc1ccc(Cc2cc([C@@H]3O[C@H](SC)[C@@H](O)[C@H](O)[C@H]3O)c3c(c2Cl)OCO3)cc1` [Compound E051, (2S,3R,4R,5S,6R)-2-(7-Chloro-6-(4-ethoxybenzyl)benzo[d][1,3]dioxol-4-yl)-6-(methylthio)tetrahydro-2H-pyran-3,4,5-triol], the half-inhibitory concentration (IC50) in test [1] worked out at 0.49 nM; in test [2], 62.4 nM.

In the case of `CCc1ccc(Cc2cc([C@@H]3O[C@H](CO)[C@@H](O)[C@H](O)[C@H]3O)c3c(c2Cl)CCO3)cc1` [Compound E008, (2S,3R,4R,5S,6R)-2-(4-Chloro-5-(4-ethylbenzyl)-2,3-dihydrobenzofuran-7-yl)-6-(hydroxymethyl)tetrahydro-2H-pyran-3,4,5-triol], the half-maximal inhibitory concentration (IC50) in test [1] came to 0.88 nM; in test [2], 44 nM.

Regarding `CCOc1ccc(Cc2cc([C@@H]3O[C@H](CO)[C@@H](O)[C@H](O)[C@H]3O)c3c(c2Cl)C(C)CO3)cc1` (stereo partly drawn) [Compound E031, (2S,3R,4R,5S,6R)-2-(4-Chloro-5-(4-ethoxybenzyl)-3-methyl-2,3-dihydrobenzofuran-7-yl)-6-(hydroxymethyl)-tetrahydro-2H-pyran-3,4,5-triol], the IC50 in test [1] was 2 nM; in test [2] it was 196 nM.

Regarding `CCOc1ccc(Cc2cc([C@@H]3O[C@H](CO)[C@@H](O)[C@H](O)[C@H]3O)c3c(c2Cl)CCCC3)cc1` [Compound E039, (2S,3R,4R,5S,6R)-2-(4-Chloro-3-(4-ethoxybenzyl)-5,6,7,8-tetrahydronaphthalen-1-yl)-6-(hydroxymethyl)tetrahydro-2H-pyran-3,4,5-triol], the half-maximal inhibitory concentration (IC50) in test [1] turned out to be 0.62 nM; in test [2], 33.2 nM.

As to `OC[C@H]1O[C@@H](c2cc(Cc3ccc(C4CC4)cc3)c(Cl)c3c2OCCO3)[C@H](O)[C@@H](O)[C@@H]1O` [Compound E027, (2S,3R,4R,5S,6R)-2-(8-Chloro-7-(4-cyclopropylbenzyl)-2,3-dihydrobenzo[b][1,4]dioxin-5-yl)-6-(hydroxymethyl)tetrahydro-2H-pyran-3,4,5-triol], the IC50 was 0.65 nM in test [1] and 41.9 nM in test [2].

On to `Cc1ccc(Cc2cc([C@@H]3O[C@H](CO)[C@@H](O)[C@H](O)[C@H]3O)c3c(c2Cl)OCO3)cc1` [Compound E040, (2S,3R,4R,5S,6R)-2-(7-Chloro-6-(4-methylbenzyl)benzo[d][1,3]dioxol-4-yl)-6-(hydroxymethyl)tetrahydro-2H-pyran-3,4,5-triol], for which the 50% inhibitory concentration (IC50) in test [1] is 1 nM; in test [2] it was 94.6 nM.

As to `COc1ccc(Cc2cc([C@@H]3O[C@H](CO)[C@@H](O)[C@H](O)[C@H]3O)c3c(c2Br)CCC3)cc1` [Compound E001, (2S,3R,4R,5S,6R)-2-(7-Bromo-6-(4-methoxybenzyl)-2,3-dihydro-1H-inden-4-yl)-6-(hydroxymethyl)tetrahydro-2H-pyran-3,4,5-triol], the IC50 in test [1] amounted to 0.44 nM; in test [2] it was 15.2 nM.

`CCOc1ccc(Cc2cc([C@@H]3O[C@H](CO)[C@@H](O)[C@H](O)[C@H]3O)c3c(c2C)CCC3)cc1` [Compound E007, (2S,3R,4R,5S,6R)-2-(6-(4-Ethoxybenzyl)-7-methyl-2,3-dihydro-1H-inden-4-yl)-6-(hydroxymethyl)tetrahydro-2H-pyran-3,4,5-triol]: the IC50 in test [2] is 160 nM.

In test [2], `COc1ccc(Cc2cc([C@@H]3O[C@H](CO)[C@@H](O)[C@H](O)[C@H]3O)c3c(c2Cl)OCCO3)cc1` [Compound E015, (2S,3R,4R,5S,6R)-2-(8-Chloro-7-(4-methoxybenzyl)-2,3-dihydrobenzo[b][1,4]dioxin-5-yl)-6-(hydroxymethyl)tetrahydro-2H-pyran-3,4,5-triol] came in with a 50% inhibitory concentration (IC50) of 34 nM.
